Measurements taken from US7094869B2, “Low molecular weight peptidomimetic growth hormone secretagogues” (Genentech, Inc., priority 1994, dated 2006).
Read-outs that look alike come from different tables or passages of the source. Non-standard residues stand in square brackets, D forms with d. Residues, ends and D or L forms follow the SMILES beside them. dNMe2Nal = CN[C@H](Cc1ccc2ccccc2c1)C(=O)O; d2Nal = N[C@H](Cc1ccc2ccccc2c1)C(=O)O; βAla = NCCC(=O)O

Assays:
[1] = Combination GHRP and IGF-1 treatment of obese Zucker Diabetic Fatty (ZDF) rats; format: in vivo, rat; conditions: for body weight gain: obese ZDF male rats, rhGH 500 μg/d
Description: Ten lean ZDF rats served as an additional control group.
This GHRP was given by sc. injection twice daily, each dose of 100 μl therefore containing 50 μg/injection or 100 μg/day.
Recombinant human IGF-1 (rhIGF-1) at 13.8 mg/ml in acetate buffer was loaded into osmotic minipumps (Alza, Palo Alto, model 2ML4, pump rate 2.29 μl/hr for 28 days, fill volume 2064 μl). Other pumps were filled with acetate buffer. […] The delivered dose of rhIGF-1 was therefore 758 μg/day. Recombinant human growth hormone (rhGH, Lot R9092AX, Genentech Inc.) was diluted in sterile water to 2.5 g/l and a 100 μl injection given twice daily (250 μg/injection, or 500 μg/day).
The next day the osmotic pumps were inserted into rats. […] All rats not receiving rhIGF-1 containing pumps were implanted with pumps delivering the acetate buffer excipient.
On day 24 blood was withdrawn after a 4 hour fast and 1.5 U/kg of regular insulin was injected i.p. and a second blood sample taken 30 minutes later. The rats were then sacrificed using carbon dioxide, bled from the heart, and organs taken. Serum glucose was measured by standard automated procedures.
Data are presented as mean±standard error (SE) of the mean with 8 rats per group.

rat pituitary cells [2] = target: T1, rat pituitary cells (Rattus norvegicus, UniProt O08725); test: Rat “pit” cell challenges: combinations with GHRP-6/GHRH, desensitization, somatostatin suppression, GHRP antagonist; format: cell-based; conditions: for GH response compared with control / GH release after sequential 15 min incubations with fresh compound (desensitization): 100 nM; for GH release in combination with GHRH: GHRP 100 nM plus GHRH 10 or 100 nM; for GH release in combination with GHRP-6: both at 100 nM; for GH release in the presence of 20 nM somatostatin: coincubation with 20 nM somatostatin; for GH release after sequential 15 min incubations with fresh compound (desensitization): three sequential 15 min incubations
T1 sequence (O08725 whole entry): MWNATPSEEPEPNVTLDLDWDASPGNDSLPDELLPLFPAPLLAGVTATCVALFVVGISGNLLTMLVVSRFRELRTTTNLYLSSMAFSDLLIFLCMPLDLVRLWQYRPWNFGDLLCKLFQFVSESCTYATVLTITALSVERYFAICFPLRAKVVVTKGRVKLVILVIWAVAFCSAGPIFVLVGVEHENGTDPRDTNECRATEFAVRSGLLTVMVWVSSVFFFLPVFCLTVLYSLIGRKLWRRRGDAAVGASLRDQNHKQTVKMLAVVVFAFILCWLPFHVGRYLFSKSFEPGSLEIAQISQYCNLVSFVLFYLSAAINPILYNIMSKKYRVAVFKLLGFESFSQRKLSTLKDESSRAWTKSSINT
Description: Dispersion: Adult female Sprague-Dawley (160-180 g., Charles River) rats were group-caged in a 12:12 light:dark cycle with food and water available ad libitum. Pituitaries from ten rats were removed, the posterior pituitary discarded and the anterior pituitary placed in Hanks' Balanced Salt Solution (HBSS: without calcium chloride, w/o magnesium chloride, w/o magnesium sulfate; Gibco) containing 20 mM HEPES (Gibco) and 100 U/ml penicillin streptomycin (PS: JRH Biosciences). Under sterile conditions, pituitaries were rinsed twice then minced into small fragments with a razor blade. Fragments were resuspended in 5 ml of HBSS/HEPES containing 20 mg collagenase (Serva 17449) and 200 ml of 1 mg/ml DNase (Sigma) for a 40 min. incubation in a 37° C. gyrotory water bath shaker (New Brunswick Scientific Model G76; setting 10). After the incubation, fragments were triturated to yield small clumps and single cells. The cells were centrifuged 1000× g for 5 min, resuspended, counted and plated at a final cell concentration of 100,000 cells/ml. Incubation media was DME low glucose media w/NaHCO3 (Gibco) containing 20 mM hepes, 100 U/ml PS and 10% FBS (Hyclone A-111-L). Cells were plated at 0.5 ml per well in 48 well plates (Falcon) and incubated at 37° C. in 5% C02 for three days. […] The highest concentration of DMSO in media was 0.1%. Stock solutions (1 mM) of rat GHRH, somatostatin (Sigma) and GHRP antagonist HwkWfK were made fresh in media and diluted appropriately. The media used in all challenges and washing steps was DME low glucose with 20 mM Hepes, 100 U/ml PS, 10% FBS. Media was warmed to 37° C. and gassed by placing it into the incubator prior to challenge. On day three, the media was discarded and fresh media (approximately 1 ml) added for the first of three washes. After the last wash, the plate was placed back in the incubator for a 15 min pre-incubation. Then cells were washed 2× (with warmed and gassed media) and fresh 0.5 ml media were added for the second 15 min. pre-incubation. After the second pre-incubation cells were washed 2× as above and 0.5 ml of control and test solutions were added for a final 15 min incubation. After this incubation, the media were removed for subsequent GH ELISA. GH ELISA: A two-site ELISA was used to determine rat GH concentration in the media. Briefly, goat anti-rat GH antibody (lot#19164-20) was used to coat Nunc immunoplates overnight. After blocking and washing, standard (rat GH reference preparation: Parlow) and challenge media is diluted 1:20 prior to GH assay were added for a 1 hr room temperature incubation. STATISTICS: The mean for each group was determined and analyzed by one-way analysis of variance with a post-hoc Student-Newman-Keuls. Significance is defined as P<0.05. The EC50 was calculated using a 4-parameter curve-fit program (Kaleidagraph). Three to four independent EC50s were used to derive the mean and SEM.

rat pituitary cells [3] = target: T1, rat pituitary cells
Method in brief: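 Primary rat anterior pituitary cells, cultured three days in DME low glucose/10% FBS, were washed, pre-incubated twice for 15 min, then challenged 15 min with test compounds (DMSO ≤0.1%) at 37 °C. Released GH was measured by two-site ELISA; EC50 came from 4-parameter fits, mean of three to four independent determinations.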

growth hormone secretion = test: GHRP induced growth hormone secretion, intravenous administration (Rat IV); format: in vivo; conditions: iv injection, serum GH 10 min after injection
Method in brief: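 Female Sprague Dawley rats (24-30 days, 50-90 g) under intraperitoneal pentobarbitone received graded intravenous tail-vein peptide doses in pH 5.0 sodium acetate/mannitol buffer 20 min post-anaesthesia. Blood by cardiac puncture 10 min after dosing; serum GH measured by rat GH ELISA in duplicate.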

[4] = read-out: EC50 of the representative GH dose response, single representative experiment, 15 min exposure
[5] = read-out: mean EC50, mean ± SE of independent EC50s
[6] = read-out: PIT Cell EC50, Table III, formula IV compounds, GH release, 15 min incubation
[7] = Day 2, GHRP 100 μg/d sc injection, rhIGF-1 758 μg/d pump

Compound: NCCCC[C@H](NC(=O)[C@H](Cc1ccccc1)NC(=O)[C@@H](Cc1ccc2ccccc2c1)NC(=O)[C@@H](Cc1ccc2ccccc2c1)NC(=O)C1CCNCC1)C(N)=O (stereo in doubt) [(inip) b b F K amide, (inip)-DβNal-DβNal-Phe-Lys-amide]
- blood glucose ([1]; rat, in vivo): 542±37 mg %

Compound: NC(=O)CN(CCc1ccccc1)C(=O)[C@@H](Cc1ccc2ccccc2c1)NC(=O)[C@@H](Cc1ccc2ccccc2c1)NC(=O)C1CCNCC1 [(inip) b b feg amide, (inip)-DβNal-DβNal-(N-2-phenylethyl-Gly) amide]
- GH response compared with control (rat pituitary cells [2]): significantly greater than control
- GH release in combination with GHRH (rat pituitary cells [2]): synergistic
- GH release in combination with GHRP-6 (rat pituitary cells [2]): not synergistic
- GH release in the presence of 20 nM somatostatin (rat pituitary cells [2]): totally suppressed
- GH release after sequential 15 min incubations with fresh compound (desensitization) (rat pituitary cells [2]): markedly decreased
- fold more potent than GHRP-6 (rat pituitary cells [3]; ratio of pit cell EC50s): ~25 fold
- EC50 (rat pituitary cells [3]; [4]): 0.09 nM
- EC50 (rat pituitary cells [3]; [5]): 0.25 ± 0.19 nM
- RAT IV ED50 (growth hormone secretion; Table IV): 1 µg

Compound: O=C(N[C@H](Cc1ccc2ccccc2c1)C(=O)N[C@@H](CO)Cc1c[nH]c2ccccc12)C1CCNCC1 [(inip) b wol, (inip)-DβNal-(D-Tryptophanol)]
- GH response compared with control (rat pituitary cells [2]): significantly greater than control
- GH release in combination with GHRH (rat pituitary cells [2]): synergistic
- GH release in combination with GHRP-6 (rat pituitary cells [2]): not synergistic
- GH release in the presence of 20 nM somatostatin (rat pituitary cells [2]): totally suppressed
- GH release after sequential 15 min incubations with fresh compound (desensitization) (rat pituitary cells [2]): no significant release of GH
- EC50 (rat pituitary cells [3]; [4]): 3.9 nM
- EC50 (rat pituitary cells [3]; [5]): 10.6 ± 6.2 nM
- RAT IV ED50 (growth hormone secretion; Table V): 0.8 µg

Compound: C[C@@H](N)C(=O)N[C@H](Cc1ccc2ccccc2c1)C(=O)N[C@H](Cc1ccc2ccccc2c1)C(=O)N[C@@H](Cc1ccccc1)C(=O)N[C@@H](CCCCN)C(N)=O [a b b F K amide] (H-[dA][d2Nal][d2Nal]FK-NH2)
- EC50 (rat pituitary cells [3]; [6]): 3.5 nM
- RAT IV ED50 (growth hormone secretion; Table III): 10 µg

Compound: C[C@@H](N)C(=O)N[C@H](Cc1c[nH]c2ccccc12)C(=O)N[C@H](Cc1c[nH]c2ccccc12)C(=O)N[C@@H](Cc1ccccc1)C(=O)N[C@@H](CCCCN)C(N)=O [a w w F K amide] (H-[dA][dW][dW]FK-NH2)
- EC50 (rat pituitary cells [3]; [6]): 4.1 nM
- RAT IV ED50 (growth hormone secretion; Table III): 1.47 µg

Compound: NCCCNC(=O)[C@H](Cc1ccc2ccccc2c1)NC(=O)[C@H](Cc1ccc2ccccc2c1)NC(=O)[C@H](N)Cc1ccc2ccccc2c1 [b B B ram, DβNal-βNal-βNal-[N-(3-aminopropyl)] amide]
- EC50 (rat pituitary cells [3]; read-out: PIT Cell EC50, Table VI, retroinverso compounds of formula V, GH release, 15 min incubation): 15.2 nM
- RAT IV ED50 (growth hormone secretion; Table VI): 100 µg

Compound: NCCCC[C@H](NC(=O)[C@H](Cc1ccccc1)NC(=O)[C@@H](Cc1ccc2ccccc2c1)NC(=O)[C@@H](Cc1ccc2ccccc2c1)NC(=O)CCN)C(N)=O [bA b b F K amide] (H-[βAla][d2Nal][d2Nal]FK-NH2)
- EC50 (rat pituitary cells [3]; [6]): 4.8 nM
- RAT IV ED50 (growth hormone secretion; Table III): 6.7 µg

Compound: CN[C@H](Cc1ccc2ccccc2c1)C(=O)N[C@H](Cc1ccc2ccccc2c1)C(=O)N[C@@H](Cc1ccccc1)C(=O)N[C@@H](CCCCN)C(N)=O [nmb b F K amide] (H-[dNMe2Nal][d2Nal]FK-NH2)
- EC50 (rat pituitary cells [3]; [6]): > 100 nM
- RAT IV ED50 (growth hormone secretion; Table III): 1000 µg

Compound: rhGH: Recombinant human growth hormone (Lot R9092AX, Genentech Inc.)
- body weight gain [1, 7]: 13.6 ± 2.5 g
- blood glucose ([1]; rat, in vivo): 725±30 mg %
- fasting blood glucose ([1]; rat, in vivo): 504±38 mg %
- serum insulin ([1]; rat, in vivo): 48 ± 6 ng/mL

Compound: rhIGF-1: Recombinant human insulin-like growth factor-1
- body weight gain [1, 7]: 21.5 ± 0.7 g
- body weight gain ([1]; day 24, GHRP 100 μg/d, rhIGF-1 758 μg/d): 232 ± 2 g
- blood glucose ([1]; rat, in vivo): 1774 mg %
- serum insulin ([1]; rat, in vivo): 8 ± 1 ng/mL
